Tests used:
SPF-grade rats = assay: Rat bowel preparation experiment (bowel cleansing effect); type: in vivo
Text: Experimental materials: L-arabinose, selected from the L-arabinose crystallization sample with batch No. 1221 in the example, prepared into a 0.4 g/mL solution with purified water; PEG (Shutaiqing), prepared into a 0.521 g/mL PEG solution with purified water; SPF-grade rats (Zhejiang Vital River Laboratory Animal Technology Co., Ltd.). • 5.1. Experimental animals and feeding thereof: SPF (specific pathogen free)-grade rats (200±10 g), 6 weeks old; normal feed was D12450-B feed: 67.35 wt % carbohydrates, 19.2 wt % crude protein, and 4.3 wt % fat. The temperature of the room was kept at 24° C. to 26° C. with humidity at 40% to 60%. • 5.2. Experimental method and procedures:
The SPF-grade rats were randomly divided into a blank control group, a positive control group, and a treatment group, 10 animals per group, half being male and half female. Administration method: Animals in each group were fasted (water was accessible) starting at 22:00 the night before experiment, were each given ½ the calculated amount of drug by intragastrical administration at 7:00 and 9:00 on the day of experiment, were each given 2.0 mL of purified water at 12:00 and 13:00, and were dissected 3.5 h after the last administration.

constipation model rats = assay: Therapeutic effect on constipation model rats (modeling with compound diphenoxylate); type: in vivo, rat; settings: n = 8; for Time for first dark stools min: first administration with 5% activated carbon; for Time for first dark stools min / Small intestine propulsion rate %: x ± sd; for Small intestine propulsion rate %: gavage once daily; for Water content of stools %: stools collected on day 7, x ± sd
Text: • Modeling procedure: modeling with compound diphenoxylate. • Experimental drugs and reagents: activated carbon (5%); a 0.4 g/mL aqueous solution prepared from an arabinose drug. • Positive control: PEG (Shutaiqing). SPF-grade rats (Zhejiang Vital River Laboratory Animal Technology Co., Ltd.).
Except for the normal group, the successfully modeled rats were randomly divided into 5 groups, including a model group, a low dose group, a medium dose group, a high dose group, and a positive control group, 8 animals per group. Each rat was housed individually in separate cages, and operations were conducted fixedly at 10:00-12:00 every day. The normal group and the model group were gavaged with 0.2 mL of purified water. The positive control group was gavaged with 0.133 mL of a mosapride solution, and the low dose group, the medium dose group, and the high dose group were gavaged with 0.01 mL, 0.02 mL, and 0.04 mL of the test drug, respectively, with the volume adjusted to 0.2 mL using purified water. The rats had free access to food and water. The administration was performed for 7 consecutive days (times).
For the first administration, the drug with 5% activated carbon (based on 0.2 g×5%) added was intragastrically administered to the treatment group, and 0.2 mL of purified water with activated carbon added was intragastrically administered to the normal group and the model group. The time for the first dark stools was recorded.
The rats were intragastrically administered once daily. On day 7 after the continuous administration, the stools were collected using a sterile centrifuge tube and stored at −100° C. The collected stools were dried at 105° C. to a constant weight, and the water content of the stools was calculated according to the formula: water content of stools=(1−mass after drying/mass before drying)×100%.
The rats were intragastrically administered once daily for 14 days and then fasted for 12 h. 1 h after the last administration, each group of animals was gavaged with 0.15 mL of 5% activated carbon, and 30 min later, the rats were anesthetized with an intraperitoneal injection of 10% chloral hydrate. After anesthesia was completed, the abdominal operation was immediately performed. The intestinal canal from pylorus to ileocecal junction was cut off and placed on a glass plate. The length of the intestinal tract traversed by the ink and the total length of the intestinal tract were measured. The intestinal propulsion rate was the ratio of the two. The total length from pylorus to ileocecal junction and the distance from pylorus to the front of the carbon ink were measured, and the carbon ink propulsion percentage was calculated. Intestinal propulsion rate=distance from front of carbon ink to pylorus/full length of small intestine×100%.

Compound	Dosage relative to that administered to the positive control group to achieve the same effect (SPF-grade rats; 9 g/kg L-arabinose vs 21.9 g/kg PEG)	Stools observed before the dissection (SPF-grade rats; L-arabinose batch No. 1221, 9 g/kg (22.5 mL/kg) intragastric in 2 doses, fasted rats)	Residue in the rectum and colon after the dissection (SPF-grade rats; L-arabinose batch No. 1221, 9 g/kg intragastric in 2 doses, dissected 3.5 h after last administration)	Time for first dark stools min (constipation model rats; High dose 0.80 g kg/d)	Small intestine propulsion rate % (constipation model rats; High dose 0.80 g kg/d)	Water content of stools % (constipation model rats; High dose 0.80 g kg/d)	Time for first dark stools min (constipation model rats; Low dose 0.20 g kg/d)	Small intestine propulsion rate % (constipation model rats; Low dose 0.20 g kg/d)	Water content of stools % (constipation model rats; Low dose 0.20 g kg/d)	Time for first dark stools min (constipation model rats; Medium dose 0.40 g kg/d)	Small intestine propulsion rate % (constipation model rats; Medium dose 0.40 g kg/d)	Water content of stools % (constipation model rats; Medium dose 0.40 g kg/d)	Time for first dark stools min (constipation model rats; Positive control 2.0 mg kg/d)	Small intestine propulsion rate % (constipation model rats; Positive control 2.0 mg kg/d)	Water content of stools % (constipation model rats; Positive control 2.0 mg kg/d)
O=C[C@H](O)[C@@H](O)[C@@H](O)CO [L-arabinose, L-Arabinose]	41%	Watery and loose stools	no residue was left in the rectum and colon	63 ± 5.7 min	83% ± 2.8	61% ± 2.4	76 ± 8.5 min	75% ± 3.1	54% ± 1.8	64 ± 6.2 min	80% ± 2.7	59% ± 2.7	–	–	–
CCOc1cc(N)c(Cl)cc1C(=O)NCC1CN(Cc2ccc(F)cc2)CCO1 (stereo not drawn) [Positive control, reference compound]	–	–	–	–	–	–	–	–	–	–	–	–	67 ± 8.8 min	82% ± 4.4	57% ± 0.9

From patent publication US20260226089A1, “METHOD FOR CONTROLLING IMPURITIES IN L-ARABINOSE AND USE THEREOF” (THOMSON BIOTECH (XIAMEN) PTE. LTD., priority 2023, published 2026)
